According to patent publication US20230077280A1, “THERAPEUTIC COMPOUNDS FOR METHODS OF USE IN INSULIN RESISTANCE” (Baylor College of Medicine, priority 2019, published 2023):

How the values were obtained:
HFD-fed mice = test: High fat diet (HFD) mice: fasting blood glucose, glucose tolerance test, insulin tolerance test; assay type: in vivo; conditions: mice fed HFD 12 weeks
Method: Another model was generated of insulin resistance by feeding wild type mice a high fat diet (HFD: 58% kcal from fat, Research Diets, New Brunswick, N.J.) for 12 weeks while control mice were fed the regular diet (RD: 11% kcal from fat). To study the effect of p-Stat3 on insulin resistance, HFD-fed mice were randomly assigned to two subgroups: one subgroup was injected intraperitoneally (i.p.) with TTI-101 (12.5 mg/kg body weight in D5W) every other day for 4 weeks, while the other subgroup received an identical volume of D5W for 4 weeks. For glucose tolerance tests (GTT), mice with free access to water were fasted for 16 hrs and then injected intraperitoneally (i.p.) with […] and tail vein blood was collected at 0, 30, 60 and 120 min intervals to measure blood glucose concentrations using a True Track Glucometer. For insulin tolerance test (ITT), mice were fasted for 4 hrs, then were injected i.p. with 2 units/kg insulin; tail vein blood was collected after 0, 30, 60 and 120 min to measure blood glucose concentrations. Changes in blood glucose were analyzed as the “area under curve” (AUC) method using Statstodo program (http://www.statstodo.com/AUC_Exp.php).

mice with CKD [1] = conditions: earlier experiments (refs 33, 34); cited from earlier work
p-Akt [2] = test: Western blotting of muscle lysates of HFD mice: p-Akt; assay type: in vivo; conditions: 12.5 mg/kg i.p. every other day for 4 weeks, vs diluent (FIG. 3J)
Method: (§1) Another model was generated of insulin resistance by feeding wild type mice a high fat diet (HFD: 58% kcal from fat, Research Diets, New Brunswick, N.J.) for 12 weeks while control mice were fed the regular diet (RD: 11% kcal from fat). To study the effect of p-Stat3 on insulin resistance, HFD-fed mice were randomly assigned to two subgroups: one subgroup was injected intraperitoneally (i.p.) with TTI-101 (12.5 mg/kg body weight in D5W) every other day for 4 weeks, while the other subgroup received an identical volume of D5W for 4 weeks. Antibodies: The primary antibodies of p-Akt ([…]) (D9E) #4060, Akt (40D4)#2920, p-Stat3 ([…]) (D3A7)#9145, Stat3(124H6)#9139 were from Cell Signaling technology (Beverly, Mass., USA). Antibody against Fbxo40 #ab190688 was from Abcam (Cambridge, Mass., USA). Antibody against IRS1 #611395 was obtained from BD Biosciences (San Jose, Calif.). Anti-GAPDH#PA1-987 was from Thermo Fisher Scientific. The antibody was verified by the molecular size of recognized proteins.

p-Akt [3] = test: Western blotting of gastrocnemius muscle lysates of CKD mice: p-Akt; assay type: in vivo; conditions: 12.5 mg/kg i.p. every other day for 2 weeks, western blotting (FIG. 1D)
Method: (§2) Animals: The experimental procedures were approved by the Institutional Animal Care and Use Committee of Baylor College of Medicine. Wild type (WT) mice (C57BL/6) were purchased from Jackson lab (Bar Harbor, Me.). To create a model of CKD, 8-10 week old mice underwent subtotal nephrectomy or sham-operated control as described; ^31 CKD mice with a BUN 80 mg/dl were studied. CKD or sham-operated control mice were assigned to two subgroups: one subgroup was injected intraperitoneally with TTI-101 (12.5 mg/kg body weight in D5W) every other day for 2 weeks, while the other subgroup received an identical volume of D5W for 2 weeks. Antibodies: The primary antibodies of p-Akt (Ser473) (D9E) #4060, Akt (40D4)#2920, p-Stat3 (Tyr705) ([…])#9145, Stat3(124H6)#9139 were from Cell Signaling technology (Beverly, Mass., USA). Antibody against Fbxo40 #ab190688 was from Abcam (Cambridge, Mass., USA). Antibody against IRS1 #611395 was obtained from BD Biosciences (San Jose, Calif.). Anti-GAPDH#PA1-987 was from Thermo Fisher Scientific. The antibody was verified by the molecular size of recognized proteins.

Fbxo40 [4] = test: qPCR of Fbxo40 mRNA in TA muscles of CKD mice; assay type: in vivo; conditions: vs D5W diluent (FIG. 2G)
Method: (§3) Animals: The experimental procedures were approved by the Institutional Animal Care and Use Committee of Baylor College of Medicine. Wild type (WT) mice (C57BL/6) were purchased from Jackson lab (Bar Harbor, Me.). To create a model of CKD, 8-10 week old mice underwent subtotal nephrectomy or sham-operated control as described; ^31 CKD mice with a BUN ˜80 mg/dl were studied. CKD or sham-operated control mice were assigned to two subgroups: one subgroup was injected intraperitoneally with TTI-101 (12.5 mg/kg body weight in D5W) every other day for 2 weeks, while the other subgroup received an identical volume of D5W for 2 weeks.
(§4) RNA extraction and quantitative real-time PCR (qPCR): RNAs were isolated using the RNeasy kit (Qiagen, Valencia, Calif.) as instructed by the company. RT-PCR was performed to obtain relative gene expressions by calculating cycle threshold (Ct) values using GAPDH as an internal control (relative expression=2(sample Ct−GAPDH Ct)).^35 Sequences of primers will be provided upon request.

mice with CKD [5] = test: CKD mice (subtotal nephrectomy): body weight, fasting blood glucose, glucose tolerance test; assay type: in vivo
Method: Animals: The experimental procedures were approved by the Institutional Animal Care and Use Committee of Baylor College of Medicine. Wild type (WT) mice (C57BL/6) were purchased from Jackson lab (Bar Harbor, Me.). To create a model of CKD, 8-10 week old mice underwent subtotal nephrectomy or sham-operated control as described; ^31 CKD mice with a BUN ˜80 mg/dl were studied. CKD or sham-operated control mice were assigned to two subgroups: one subgroup was injected intraperitoneally with TTI-101 (12.5 mg/kg body weight in D5W) every other day for 2 weeks, while the other subgroup received an identical volume of D5W for 2 weeks. For glucose tolerance tests (GTT), mice with free access to water were fasted for 16 hrs and then injected intraperitoneally (i.p.) with […] and tail vein blood was collected at 0, 30, 60 and 120 min intervals to measure blood glucose concentrations using a True Track Glucometer. For insulin tolerance test (ITT), mice were fasted for 4 hrs, then were injected i.p. with 2 units/kg insulin; tail vein blood was collected after 0, 30, 60 and 120 min to measure blood glucose concentrations. Changes in blood glucose were analyzed as the “area under curve” (AUC) method using Statstodo program (http://www.statstodo.com/AUC_Exp.php).

IRS1 [6] = test: Western blotting of muscle lysates of HFD mice: IRS1; assay type: in vivo; conditions: 12.5 mg/kg i.p. every other day for 4 weeks, vs diluent (FIG. 3J)
Method: as §1

IRS1 [7] = test: qPCR of IRS1 mRNA in TA muscles of CKD mice; assay type: in vivo; conditions: vs D5W diluent (FIG. 2H)
Method: as §3, §4

Fbxo40 [8] = test: Western blotting of tibialis anterior muscle lysates of CKD mice: Fbxo40 protein; assay type: in vivo; conditions: western blotting (FIGS. 2I and 2J)
Method: as §2

p-Stat3 = test: Western blotting of gastrocnemius muscle lysates of CKD mice: p-Stat3; assay type: in vivo; conditions: 12.5 mg/kg i.p. every other day for 2 weeks, western blotting (FIG. 1D)
Method: Animals: The experimental procedures were approved by the Institutional Animal Care and Use Committee of Baylor College of Medicine. Wild type (WT) mice (C57BL/6) were purchased from Jackson lab (Bar Harbor, Me.). To create a model of CKD, 8-10 week old mice underwent subtotal nephrectomy or sham-operated control as described; ^31 CKD mice with a BUN 80 mg/dl were studied. […] Antibodies: The primary antibodies of p-Akt (Ser473) (D9E) #4060, Akt (40D4)#2920, p-Stat3 (Tyr705) ([MUT])#9145, Stat3(124H6)#9139 were from Cell Signaling technology (Beverly, Mass., USA). Antibody against Fbxo40 #ab190688 was from Abcam (Cambridge, Mass., USA). Antibody against IRS1 #611395 was obtained from BD Biosciences (San Jose, Calif.). Anti-GAPDH#PA1-987 was from Thermo Fisher Scientific. The antibody was verified by the molecular size of recognized proteins.

For `COc1ccc(S(=O)(=O)Nc2cc(-c3c(O)ccc4ccccc34)c(O)c3ccccc23)cc1` [TTI-101, N-(1′,2-dihydroxy-1,2′-binaphthalen-4′-yl)-4-methoxybenzenesulfonamide], the “fasting values of blood glucose” value (HFD-fed mice; then 12.5 mg/kg i.p. every other day for 4 weeks with HFD continued, vs diluent (FIG. 3G)) was “decreased”, the glucose tolerance (HFD-fed mice; then 12.5 mg/kg i.p. every other day for 4 weeks, vs diluent (FIG. 3H)) was “improved” and the insulin tolerance (HFD-fed mice; then 12.5 mg/kg i.p. every other day for 4 weeks, vs diluent (FIG. 3I)) was “improved”. The “body weights of mice” value (mice with CKD [1]) was “increases”, the “p-Akt levels in muscles” value (p-Akt [2]) was “higher levels” and the “p-Akt in muscle lysates” value (p-Akt [3]) was “increasing”. The “Fbxo40 mRNA in muscles” value (Fbxo40 [4]) was “suppression”, the glucose tolerance (mice with CKD [5]; 12.5 mg/kg i.p. every other day for 2 weeks, vs D5W diluent (FIG. 1C)) was “significantly improved” and the body weight (mice with CKD [5]; 12.5 mg/kg i.p. every other day, after 2 weeks of treatment, vs D5W diluent (FIG. 1A)) was “increased”. The “blood glucose levels (fasting, 16 hr)” value (mice with CKD [5]; 12.5 mg/kg i.p. every other day, after 2 weeks of treatment, vs D5W diluent (FIG. 1B)) was “decreased”, the “IRS1 levels in muscles” value (IRS1 [6]) was “higher levels” and the “IRS1 mRNAs in muscles” value (IRS1 [7]) was “increased”. The “Fbxo40 protein in muscles” value (Fbxo40 [8]) was “significantly decreased” and the “p-Stat3 in muscle lysates” value (p-Stat3) was “suppressed”.
